Here are results for eleven compounds from patent publication US7932384B2, “Reverse-turn mimetics and method relating thereto” (Choongwae Pharma Corporation, priority 2001, dated 2011).

≈ marks a conversion by molar mass, not a printed value.

In one assay the test system is min mouse. As to the kind of experiment: Min mouse model (polyp number). Type of assay: in vivo. The conditions noted are these: 300 mpk. On the procedure:
Selected compounds of the present invention (Compound B and Compound C) were evaluated in the min mouse model to evaluate their efficacy as anti-cancer agents.
The min mouse model is a widely used model to test for this type of efficacy. The numbers of polyp formed in small intestine and colon of these mice after various treatments were measured (Table 7).
As to `CN1CC(=O)N2[C@@H](Cc3ccc(O)cc3)C(=O)N(Cc3cccc4cccnc34)C[C@@H]2N1C(=O)NCc1ccccc1` [Compound B], the “Polyp Number (Mean ± S.D.) Colon” value came out at 1.4 ± 0.9, the “Polyp Number (Mean ± S.D.) Small Intestine” value came out at 45.2 ± 22.1 and the “Polyp Number (Mean ± S.D.) Total” value was found to be 46.8 ± 17.0.

Still in this assay, the particulars now being: 300 mpk, total polyp number.
`CN1CC(=O)N2[C@@H](Cc3ccc(O)cc3)C(=O)N(Cc3cccc4cccnc34)C[C@@H]2N1C(=O)NCc1ccccc1` [Compound B]: the “% Inhibition vs. VH” value amounted to 31%.

Another assay concerns surviving protein. As to the kind of experiment: Western blot analysis of survivin protein. Format: cell-based. The conditions noted are these: 5 μM.
Consider `O=c1[nH]cc(F)c(=O)[nH]1` [Compound 5-FU, 5-fluorouracil, reference compound], for which the “amount of survivin protein (Western blot)” value was “reduced the amount of the surviving protein”.

The subject of the next assay is 293. In words: Sulforhodamine B (SRB) assay, 293. The conditions noted are these: Homo sapiens, HEK293; Renal, 293, 48 hours. Format: cell-based. On the procedure: Growth inhibitory effect of Compound A on the cells listed below was measured by the sulforhodamine B assay. SW480 cells in 100 μl media were plated in each well of 96-well plate and allowed to attach for 24 hours. Compound A was added to the wells to produce the desired final concentrations, and the plates were incubated at 37° C. for 48 hours. The cells were then fixed by gentle addition of 100 μl of cold (4° C.) 10% trichloroacetic acid to each well, followed by incubation at 4° C. for 1 hour. Plates were washed with deionized water five times and allowed to air dry. The cells were then stained by addition of 100 μl SRB solution (0.4% SRB(w/v) in 1% acetic acid (v/v)) to wells for 15 min. After staining, the plates were quickly washed five times with 1% acetic acid to remove any unbound dye, and allowed to air dry. Bound dye was solubilized with 10 mmol/L Tris base (pH 10.5) prior to reading the plates. The optical density (OD) was read on a plate reader at a wavelength of 515 nm with Molecular Device. Inhibition of growth was expressed as relative viability (% of control) and GI50 was calculated from concentration-response curves after log/probit transformation.
The values in Table 6 are in μg/ml.
As for `O=c1[nH]cc(F)c(=O)[nH]1` [Compound 5-FU, 5-fluorouracil, reference compound], growth was halved (GI50) at 2.02 µg/mL (≈ 15.5 µM).

The next assay deals with TCF4/β-catenin transcriptional pathway. In words: Reporter gene assay (TOPFlash luciferase) in SW480 cells. Format: cell-based. The following applies: Homo sapiens, SW480, Table 4, selected library compounds, Reporter gene assay as described in Example 6; read-out: IC50. On the procedure: SW480 cells were transfected with the usage of Superfect™ transfect reagent (Qiagen, 301307). Cells were trypsinized briefly 1 day before transfection and plated on 6 well plate (5×10^5 cells/well) so that they were 50-80% confluent on the day of transfection.
Four microgram (TOPFlash) and one microgram (pRL-null) of DNAs were diluted in 150 μl of serum-free medium, and 30 μl of Superfect™ transfect reagent was added. The DNA-Superfect mixture was incubated at room temperature for 15 min, and then, 1 ml of 10% FBS DMEM was added to this complex for an additional 3 hours of incubation. While complexes were forming, cells were washed with PBS twice without antibiotics.
The DNA-Superfect™ transfect reagent complexes were applied to the cells before incubating at 37° C. at 5% CO2 for 3 hours. After incubation, recovery medium with 10% FBS was added to bring the final volume to 1.18 ml. After 3 hours incubation, the cells were harvested and reseeded to 96 well plate (3×10^4 cells/well). After overnight incubation at 37° C. at 5% CO2, the cells were treated with Compound A for 24 hours. Finally, the activity was checked by means of luciferase assay (Promega, E1960).
`COC(=O)N1C2CN(CCc3ccc(F)cc3)C(=O)C(Cc3cccc4ccccc34)N2C(=O)CN1Cc1ccccc1` (stereo not drawn) [Compound 1]: the IC50 turned out to be 12.8 µM.

On to `C=CCN1CC(=O)N2[C@@H](Cc3ccc(OP(=O)(O)O)cc3)C(=O)N(Cc3cccc4c3OCCN4C)C[C@@H]2N1C(=O)NCc1ccccc1` [Compound 169], for which the IC50 stood at 1 ± 0.1 µM.

For another assay, the system named is HCT116 cells. In words: Growth inhibition assay (MTS or sulforhodamine B), HCT116. Format: cell-based. The conditions noted are these: Homo sapiens, HCT-116, 48 h, Table 5, MTS or sulforhodamine B assay, HCT116, 48 hours.
As to `CN1CC(=O)N2[C@@H](Cc3ccc(O)cc3)C(=O)N(Cc3cccc4ccccc34)C[C@@H]2N1C(=O)NCc1ccccc1` [Compound 1], growth was halved (GI50) at 1.78 µM.

The compound `CN1CC(=O)N2[C@@H](Cc3ccc(O)cc3)C(=O)N(Cc3ccc(F)cc3F)C[C@@H]2N1C(=O)NCc1ccccc1` [Compound 13] yielded a GI50 of 1.59 µM. As for `CN1CC(=O)N2[C@@H](Cc3ccc(O)cc3)C(=O)N(Cc3cccc4c3cnn4CCN3CCOCC3)C[C@@H]2N1C(=O)NCc1ccccc1` [Compound 73], it took 15.8 ± 2.6 µM to inhibit growth by half (GI50).

On to `CN1CC(=O)N2[C@@H](Cc3ccc(O)cc3)CN(Cc3ccc(F)cc3F)C[C@@H]2N1C(=O)NCc1ccccc1` [Compound 77], for which the concentration for 50% growth inhibition (GI50) was determined as 10.7 ± 0.8 µM. In turn, `C=CCN1CC(=O)N2[C@@H](Cc3ccc(O)cc3)C(=O)N(Cc3ccc(F)cc3F)C[C@@H]2N1C(=O)NCc1ccccc1` [Compound 115] showed a GI50 of 1.1 ± 0.04 µM. `C=CCN1CC(=O)N2[C@@H](Cc3ccc(O)cc3)C(=O)N(Cc3ccc(F)cc3F)[C@@H](C)[C@@H]2N1C(=O)NCc1ccccc1` [Compound 147] showed a GI50 of 5.5 ± 0.4 µM.

Another assay concerns SW480 cells. In words: Growth inhibition assay (MTS or sulforhodamine B), SW480. Format: cell-based. The conditions noted are these: Homo sapiens, SW480, 48 h, Table 5, MTS or sulforhodamine B assay, SW480, 48 hours; read-out: Growth Inhibition (GI50, uM) SW480.
Take `CN1CC(=O)N2[C@@H](Cc3ccc(O)cc3)C(=O)N(Cc3cccc4ccccc34)C[C@@H]2N1C(=O)NCc1ccccc1` [Compound 1]: the GI50 came out at 2.28 µM.

As for `CN1CC(=O)N2[C@@H](Cc3ccc(O)cc3)C(=O)N(Cc3ccc(F)cc3F)C[C@@H]2N1C(=O)NCc1ccccc1` [Compound 13], the GI50 was 1.65 µM. `CCOP(=O)(CC(=O)Nc1ccc(C[C@H]2C(=O)N(Cc3cccc4ccccc34)C[C@H]3N2C(=O)CN(C)N3C(=O)NCc2ccccc2)cc1)OCC` [Compound 59]: the GI50 is more than 50 µM. With `CN1CC(=O)N2[C@@H](Cc3ccc(O)cc3)C(=O)N(Cc3cccc4c3cnn4CCN3CCOCC3)C[C@@H]2N1C(=O)NCc1ccccc1` [Compound 73], the GI50 amounted to 9.2 ± 0.8 µM.

As for `CN1CC(=O)N2[C@@H](Cc3ccc(O)cc3)CN(Cc3ccc(F)cc3F)C[C@@H]2N1C(=O)NCc1ccccc1` [Compound 77], the GI50 worked out at 26.5 ± 6.5 µM.

Consider `C=CCN1CC(=O)N2[C@@H](Cc3ccc(O)cc3)C(=O)N(Cc3ccc(F)cc3F)C[C@@H]2N1C(=O)NCc1ccccc1` [Compound 115], for which the concentration for 50% growth inhibition (GI50) stood at 2 ± 0.7 µM. The same measure, in the same setting: next, `C=CCN1CC(=O)N2[C@@H](Cc3ccc(O)cc3)C(=O)N(Cc3ccc(F)cc3F)[C@@H](C)[C@@H]2N1C(=O)NCc1ccccc1` [Compound 147]: 6.1 ± 0.4 µM.
